63 molecules from a melting point compilation (Tetko et al.; mined from patent text by program, amines drawn as free bases though some values may be those of a salt) can be followed below.

For orientation: melting point means the temperature of the solid-liquid transition.

In turn, `COC(=O)Oc1cc(NC(=O)OCc2ccccc2)c(F)cc1Cl` showed a melting point of 70 to 72 °C. The figure for `OC(CN1CCCCC1)c1cc(-c2ccccc2)on1` (stereo not drawn) is 104 to 106 °C. Take `C#Cc1c(O)c(C)c(C)c(O)c1C#C`: the melting point was determined as 152 °C. On to `NS(=O)(=O)c1nc2ccc(OC(=O)CC3CCCC3)cc2s1`, for which the melting point lay in the range of 118 to 120 °C. The value for `O=C1Nc2ccccc2N(C(=O)N2CCCC(CCCN3CCOCC3)C2)c2ncccc21` (stereo not drawn) was 161 to 163 °C. The value for `COc1ccc(S(=O)(=O)Nc2cccnc2Nc2ccc(Oc3ccccc3)cc2)cc1` was 174 to 176 °C; that for `Cc1cn(C)c(C)c1-c1ccnc(Nc2ccc(F)cc2)n1` was 124 to 128 °C. The value for `C#CCc1[nH]c(C)c2c1CN=C(c1ccccc1F)c1cc(Cl)ccc1-2` was 179 to 180 °C; that for `c1ccc(Nc2nc(-c3cccs3)nc3ccccc23)cc1` was 137 to 139 °C.

Consider `O=C1COc2cc(SCc3ccc(Cl)cc3)ccc2N1`, for which the melting point fell in the range of 174 to 175 °C. Regarding `Cc1cc(C)nc(NC#N)n1`, the melting point stood at 205 °C. For the molecule `COc1cc(Nc2nccc(NC(=O)OC(C)(C)C)n2)cc(OC)c1OC`, the melting point was 124 °C. The figure for `C=CCc1cc(C#CC2(O)CN3CCC2CC3)ccc1OCC(=O)OCC` (stereo not drawn) is 95.9 °C; for `CCCn1c(CO)nc(C(C)C)c1Sc1cc(Cl)cc(Cl)c1` it is 104 to 107 °C; for `Cc1nnc(C)c(-c2c(F)cc(F)cc2F)c1-c1cccs1` it is 100 to 102 °C. Turning to `COc1cc2c3c4c(c(-c5ccccc5)cc3n(C)c2cc1OS(=O)(=O)C(F)(F)F)C(=O)NC4=O`, the melting point lay in the range of 244 to 246 °C.

Consider `O=C(O)CCCN1c2ccccc2Sc2ccc(Cl)cc21`, for which the melting point was in the range of 142 to 144 °C. As for `CCOC(=O)N1CCC(n2c(=O)[nH]c3ccc(C)cc32)CC1`, the melting point lay within 222 to 224 °C. For `Nc1nc(=O)n(C2CC(O)C(CO)O2)cc1F` (stereo not drawn), the melting point was in the range of 199 to 201 °C. The value for `CC(Cn1ncnn1)n1nnc2cc3c(=O)n(CCF)nnc3cc2c1=O` (stereo not drawn) was 196 to 198 °C. Molecule `NC(=NCCCc1c[nH]cn1)N(CCN(Cc1ccc(Cl)cc1)c1ccccn1)C(=O)c1ccccc1` displayed a melting point of 166 to 167 °C.

As for `CCOC(=O)c1ccc(-c2cc(O)c(SCCc3ccccc3)c(=O)o2)cc1`, the melting point lay in the range of 156 to 158 °C. The value for `CN(C)c1ccc(S(=O)(=O)NCCCCC(=O)O)cc1` was 105 to 110 °C. The figure for `Fc1ccc2c(C3=CCC4(CC3)OCCO4)c[nH]c2c1` is 196 to 197 °C; for `C=Cc1ccc(OC)c(OC)c1[N+](=O)[O-]` it is 140 to 141 °C; for `CC(C)c1nc(CN(C(=O)N[C@H](C(=O)N[C@@H](Cc2ccccc2)C[C@H](O)[C@H](Cc2ccccc2)NC(=O)OCc2cncs2)C(C)C)C2CC2)cs1` it is 65 to 66 °C. The value for `COc1ncccc1NC(=O)[C@H]1[C@H](c2ccccc2)C1(C)C` (relative stereo) was 152 to 154 °C; that for `CC(Cc1ccc(Cl)cc1Cl)NC(=O)c1ccccc1C(F)(F)F` (stereo not drawn) was 142 °C.

The molecule `O=C(Nc1ccc(Oc2ccnc(NCCN3CCCC3)n2)c2ccccc12)c1cc(F)cc(N2CCOCC2)c1` had a melting point of 95 to 97 °C. The figure for `CNC(=O)C(Cc1ccc(OC)cc1)NC(=O)C(CC(C)C)C(S)CC(=O)NCC(N)=O` (stereo not drawn) is 247 to 252 °C. The figure for `Clc1cn2cc(Cl)c(Cl)c(Cl)c2n1` is 232 to 233 °C; for `CC(=O)Nc1ccc2oc(-c3ccccc3)c(O)c(=O)c2c1` it is 241 to 242 °C; for `CC(=O)OC12Oc3cc(C(C)C)ccc3C1(OC(C)=O)C(=O)c1c(NS(C)(=O)=O)cccc12` (stereo not drawn) it is 96 to 100 °C.

For `Nc1cccc(Oc2ccc(Sc3ccc(Oc4cccc(N)c4)cc3)cc2)c1`, the melting point was in the range of 112 to 113 °C. Take `CCCC(=O)Nc1ccc(O)c(C(=O)C=CN(C)C)c1`: the melting point worked out at 174 °C. `Cc1cccc(C)c1N(CCCC(=O)N[C@@H](CO)C(=O)O)C(=O)c1ccc(Cl)cc1` had a melting point of 147 to 148 °C. For the molecule `CCOC(=O)Cc1ccc(-c2nc(COc3cc(CO)on3)c(C)o2)cc1`, the melting point was in the range of 116 to 117 °C. On to `N#CC(O)COc1ccccc1` (stereo not drawn), for which the melting point came out at 59 °C. The figure for `O=c1[nH]c2ccc(C(F)(F)F)cc2c(-c2cc(Cl)ccc2O)c1NS(=O)(=O)C(F)(F)F` is 268 to 270 °C; for `CC(C)[C@H](NC(=O)OC(C)(C)C)[C@H]1CCn2c(c(C3=C(c4cn(-c5ccccc5)c5ccccc45)C(=O)OC3=O)c3ccccc32)C1` it is 148 to 150 °C; for `CCCCCCCCc1ccc(N(c2ccc(CCCCCCCC)cc2)C2(c3c(C)n(CC)c4ccccc34)OC(=O)c3ccccc32)cc1` (stereo not drawn) it is 106 to 108 °C.

Consider `COc1cc2ncc(C#N)c(Nc3cc(C)ccc3O)c2cc1OC`, for which the melting point lay within 198 to 200 °C.

In turn, `CCCCC[C@H]1CC[C@H](C(=O)N[C@@H](C(=O)OCc2ccccc2)[C@@H](C)O)CC1` displayed a melting point of 130 to 134 °C. `Cc1ccc2c(c1)C=Cc1cc(C)ccc1C2c1cn(Cc2ccc(C(=O)O)o2)c(=O)[nH]c1=S` came in with a melting point of 290 to 292 °C. As for `NC(=O)NN=Cc1ccc(OCC2CCCCC2)cc1`, the melting point lay within 218 to 219 °C. The figure for `CCC1N=NC(c2ccccc2)=C(O)N1C` (stereo not drawn) is 122 °C; for `CCCCCCCCN=C=O` it is 60 to 62 °C. The value for `Clc1ccc(CN2C(=NCCCn3ccnc3)c3cccc4cccc2c34)cc1` was 90 to 91 °C. With `O=C1C(Cc2ccc(Br)cc2)=C(C(F)F)C(=O)c2ccccc21`, the melting point lay in the range of 103 to 104 °C. For `CC(=O)OC(c1ccccc1F)c1scnc1C` (stereo not drawn), the melting point fell in the range of 53 to 56 °C. `S=c1nc(NCCCOc2cccc(CN3CCCCC3)c2)cc[nH]1` registered a melting point of 180 to 181 °C. The figure for `O=C(O)c1ccc(C(=O)NC/C=C/c2ccccc2)cc1` is 176 to 178 °C; for `O=[N+]([O-])CS(=O)(=O)c1cccc2c1sc1ccccc12` it is 145 to 146 °C; for `CC(C)(C)CN1C(=O)C(=O)N(c2ccc(F)cc2F)C1=S` it is 156 to 157 °C. Molecule `Cc1nnc(-c2ccccn2)[nH]c1=O` gave a melting point of 299 to 300 °C. The figure for `CCCCCCc1cc2c(s1)-n1c(C)nnc1CN=C2c1ccccc1OC` is 128 to 130 °C; for `CCCCN=C(N(CCCC)CCCC)N(CCCC)CCCC` it is 100 to 102 °C. The figure for `CCCS(=O)c1sc(C(N)=O)c2c1-c1c(cnn1CC)CC2` (stereo not drawn) is 151 to 152 °C; for `O=C(NC(c1ccccc1)c1cc2ccncc2[nH]1)c1ccccn1` (stereo not drawn) it is 102 to 110 °C. The value for `COC(=O)N(Cc1nc(-c2ccccc2)c(-c2ccccc2)o1)c1cccc(OCC(=O)O)c1` was 153 to 155 °C. In turn, `CCCCNC(=O)NS(=O)(=O)Cc1c(C(=O)OC)cccc1S(=O)(=O)N(C)C` came in with a melting point of 118 to 134 °C. On to `O=C(O)Cc1nn(Cc2nc3cc(C(F)(F)F)ccc3s2)c(=O)c2nccnc12`, for which the melting point lay in the range of 192 to 193 °C.

`COCNC(=S)n1nc(Oc2ccc(C#N)cc2C(F)(F)F)cc1C`: the melting point was 89 to 90 °C.
